{"source": "paper PMC2749862", "about": "“Glucocorticoids with different chemical structures but similar glucocorticoid receptor potency regulate subsets of common and unique genes in human trabecular meshwork cells” (BMC Medical Genomics, 2009)", "key": {"TM 93 cells": {"system": "TM 93 cells", "assay": "Microarray gene expression profiling in TM 93 cells (with IPA and GoMiner analysis)", "assay_type": "cell-based, human", "details": "1 μM, 24 hr", "from_the_text": "(§1) Cells were maintained in low glucose Dulbecco's Modified Eagle Medium (DMEM, Invitrogen, Carlsbad, CA) supplemented with 10% (vol/vol) FBS (American Type Culture Collection, Manassas, VA), 1% (vol/vol) penicillin and streptomycin (Invitrogen). Cells from the human HeLa cervical adenocarcinoma cell line (American Type Culture Collection) were maintained in α-MEM medium supplemented with 10% (v/v) FBS, 1% (v/v) penicillin and streptomycin. All cells were used within passages 3 to 6. […] Cells were maintained for one week with medium renewal every other day. The day before the experiment, confluent TM were washed once with phosphate-buffered saline (PBS) and then the cells were maintained in 1% FBS-containing medium with antibiotics. […] Control cells were treated with 0.1%(v/v) dimethylsulfoxide (DMSO). At the end of GC treatment, supernatant was discarded and the cell monolayer was kept frozen at -80°C for subsequent total RNA extraction and gene expression profiling. […] Briefly, RNA was isolated from flash frozen cell culture plates using RNeasy Mini columns (Qiagen, Valencia, CA) according to the manufacturer's protocol. There were three biological replicates per treatment condition. The quantity and purity of the extracted RNA was evaluated using a NanoDrop ND-1000 spectrophotometer (Nanodrop Technologies, Wilmington, DE, USA) and its integrity measured using an Agilent Bioanalyzer. […] The amount and quality of the fluorescently labeled cRNA was assessed using a NanoDrop ND-1000 spectrophotometer and an Agilent Bioanalyzer. An equal amount of Cy3-labeled cRNA (1.6 μg) was hybridized to the Agilent Human Whole Genome Oligo Microarray (Agilent Technologies) for 17 hours, prior to washing and scanning. Data were extracted from scanned images using Agilent's Feature Extraction Software (Agilent Technologies) using default settings. […] The full complement of microarray data has been deposited in the NIH/NLM Gene Expression Omnibus (GEO accession # GSE16643). […] The lists of differentially expressed genes were also applied to global functional, network and canonical pathway analyses using Ingenuity Pathway Analysis (Ingenuity® Systems, Redwood City, CA)."}, "[1]": {"details": "human, following local administration; cited from earlier work"}, "glucocorticoid receptor [2]": {"target": "T1, glucocorticoid receptor (Homo sapiens, UniProt P04150)", "T1 sequence (P04150 524-777 limits assumed)": "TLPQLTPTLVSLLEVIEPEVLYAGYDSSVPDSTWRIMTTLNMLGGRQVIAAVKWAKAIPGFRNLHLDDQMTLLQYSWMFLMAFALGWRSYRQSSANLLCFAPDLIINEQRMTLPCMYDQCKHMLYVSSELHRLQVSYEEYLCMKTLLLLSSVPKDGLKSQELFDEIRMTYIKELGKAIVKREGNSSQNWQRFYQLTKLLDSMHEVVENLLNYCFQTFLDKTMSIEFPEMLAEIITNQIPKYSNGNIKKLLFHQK", "assay": "GeneBLAzer beta-lactamase reporter gene assay, GR transactivation in MMTV-bla HeLa CellSensor cells", "assay_type": "cell-based", "details": "5 hr treatment", "method": "GR transactivation activity was assessed by the Invitrogen SelectScreen Profiling Service (Madison, WI), using Invitrogen GeneBLAzer beta-lactamase reporter gene technology. Profiling was performed using human HeLa cells stably transfected with an expression construct containing β-lactamase cDNA under the control of the MMTV response element previously identified as a GR response element (MMTV-bla HeLa CellSensor®). The MMTV-bla HeLa cells were plated in 384-well plates in 32 μl assay medium (OPTIMEM + 1% charcoal/dextran stripped FBS) at a density of 10,000 cells/well and incubated overnight. […] The β-lactamase activity of each sample was determined by adding 8 μl of 6-fold concentrated LiveBLAzer™ substrate solution to the samples followed by two hours of incubation at room temperature in a Tecan Safire2 plate reader using the appropriate LiveBLAzer™ filter settings. GC treatment was performed in 15-point dose response using a three-fold dilution series starting with a maximum compound concentration of 10 μM. Each data point represents a triplicate sample (n = 3). Assay reproducibility was determined by calculating Z' values for untreated vs. maximum stimulation. The GeneBLAzer assay was performed twice."}, "glucocorticoid receptor [3]": {"target": "T1, glucocorticoid receptor", "assay": "GR radiolabeled competitive binding assay (IM-9 cell cytosol, [3H]dexamethasone; Cerep)", "method": "GR binding affinity assay was performed at Cerep Inc. (Celle l'Evescault, France), according to an established method. […] Nonspecific binding is determined in the presence of 10 μM triamcinolone. Following incubation, the samples are filtered rapidly under vacuum through glass fiber filters (GF/B, Packard) presoaked with 0.3% Poly(ethyleneimine) and rinsed several times with ice-cold 50 mM Tris-HCl using a 96-sample cell harvester (Unifilter, Packard). The filters are dried and counted for radioactivity in a scintillation counter (Topcount, Packard) using a scintillation cocktail (Microscint 0, Packard). The results are expressed as percent inhibition of the control radioligand specific binding. The IC50 values (concentration causing half-maximal inhibition of control specific binding) and Hill coefficients (nH) were determined by non-linear regression analysis of the competition curves generated with mean replicate values using Hill equation curve fitting (Y = D + [(A - D)/(1 + (C/C50)^nH)], where Y = specific binding, D = minimum specific binding, A = maximum specific binding, C = compound concentration, C50 = IC50, and nH = slope factor). […] The inhibition constants (Ki) were calculated using the Cheng Prusoff equation (Ki = IC50/(1+(L/KD)), where L = concentration of radioligand in the assay, and KD = affinity of the radioligand for the receptor). […] The GR binding assay was performed in duplicate."}, "TM 86 cells": {"system": "TM 86 cells", "assay": "Microarray gene expression profiling in TM 86 cells (with IPA and GoMiner analysis)", "assay_type": "cell-based, human", "details": "1 μM, 24 hr", "from_the_text": "as §1"}}, "data": [{"smiles": "CC1(C)O[C@@H]2C[C@H]3[C@@H]4CCC5=CC(=O)C=C[C@]5(C)[C@@]4(F)[C@@H](O)C[C@]3(C)[C@]2(C(=O)CO)O1", "note": "[TA, triamcinolone acetonide]", "values": [{"measurement": "function of significantly regulated genes (Ingenuity Pathway Analysis)", "setting": "TM 93 cells", "value": "cell adhesion"}, {"measurement": "number of genes uniquely regulated by each GC", "setting": "TM 93 cells", "value": 555}, {"measurement": "significantly regulated biological process (GoMiner gene ontology)", "setting": "TM 93 cells", "value": "smooth muscle cell proliferation"}, {"measurement": "ANGPTL4 FC (fold change)", "setting": "TM 93 cells; microarray", "value": 5.3, "unit": "fold"}, {"measurement": "ANGPTL7 FC (fold change)", "setting": "TM 93 cells; microarray", "value": 20.5, "unit": "fold"}, {"measurement": "AQP1 FC (fold change)", "setting": "TM 93 cells; microarray", "value": -2.8, "unit": "fold"}, {"measurement": "CCRL1 FC (fold change)", "setting": "TM 93 cells; microarray", "value": -2.1, "unit": "fold"}, {"measurement": "CXADR FC (fold change)", "setting": "TM 93 cells; microarray", "value": -2.6, "unit": "fold"}, {"measurement": "FKBP5 FC (fold change)", "setting": "TM 93 cells; microarray", "value": 5.8, "unit": "fold"}, {"measurement": "GABRB1 FC (fold change)", "setting": "TM 93 cells; microarray", "value": -2.6, "unit": "fold"}, {"measurement": "ITGA10 FC (fold change)", "setting": "TM 93 cells; microarray", "value": 5.6, "unit": "fold"}, {"measurement": "KAL1 FC (fold change)", "setting": "TM 93 cells; microarray", "value": -3.3, "unit": "fold"}, {"measurement": "KCNB1 FC (fold change)", "setting": "TM 93 cells; microarray", "value": 11.3, "unit": "fold"}, {"measurement": "KIF4A FC (fold change)", "setting": "TM 93 cells; microarray", "value": -2.3, "unit": "fold"}, {"measurement": "KLF15 FC (fold change)", "setting": "TM 93 cells; microarray", "value": 3.9, "unit": "fold"}, {"measurement": "MXRA5 FC (fold change)", "setting": "TM 93 cells; microarray", "value": -4.5, "unit": "fold"}, {"measurement": "MYOC FC (fold change)", "setting": "TM 93 cells; microarray", "value": 2.6, "unit": "fold"}, {"measurement": "OCA2 FC (fold change)", "setting": "TM 93 cells; microarray", "value": ">100", "unit": "fold"}, {"measurement": "PCDH19 FC (fold change)", "setting": "TM 93 cells; microarray", "value": -3.3, "unit": "fold"}, {"measurement": "PER3 FC (fold change)", "setting": "TM 93 cells; microarray", "value": -3.8, "unit": "fold"}, {"measurement": "PF4 FC (fold change)", "setting": "TM 93 cells; microarray", "value": 4.4, "unit": "fold"}, {"measurement": "RGC32 FC (fold change)", "setting": "TM 93 cells; microarray", "value": 19.9, "unit": "fold"}, {"measurement": "SAA1 FC (fold change)", "setting": "TM 93 cells; microarray", "value": 11.9, "unit": "fold"}, {"measurement": "ZBTB16 FC (fold change)", "setting": "TM 93 cells; microarray", "value": 5.5, "unit": "fold"}, {"measurement": "ocular tissue concentrations", "setting": "[1]", "value": "> 1", "unit": "µM"}, {"measurement": "EC50", "setting": "glucocorticoid receptor [2]", "value": "1.29 ± 0.28", "unit": "nM"}, {"measurement": "nH (Hill coefficient)", "setting": "glucocorticoid receptor [3]; IM-9 cell cytosol competition curves", "value": "1.05 ± 0.07"}, {"measurement": "Ki", "setting": "glucocorticoid receptor [3]; IM-9 cell cytosol, calculated by Cheng Prusoff equation", "value": "0.72 ± 0.24", "unit": "nM"}, {"measurement": "IC50", "setting": "glucocorticoid receptor [3]; read-out: GR binding affinity IC50", "value": "1.45 ± 0.5", "unit": "nM"}, {"measurement": "function of significantly regulated transcripts (Ingenuity Pathway Analysis)", "setting": "TM 86 cells", "value": "cell morphology"}, {"measurement": "number of genes uniquely regulated by each GC", "setting": "TM 86 cells", "value": 388}, {"measurement": "significantly regulated biological process (GoMiner gene ontology)", "setting": "TM 86 cells", "value": "mitotic cell cycle"}, {"measurement": "ANGPTL4 FC (fold change)", "setting": "TM 86 cells; microarray", "value": 7.9, "unit": "fold"}, {"measurement": "ANGPTL7 FC (fold change)", "setting": "TM 86 cells; microarray", "value": 26.5, "unit": "fold"}, {"measurement": "AQP1 FC (fold change)", "setting": "TM 86 cells; microarray", "value": -5.1, "unit": "fold"}, {"measurement": "CCRL1 FC (fold change)", "setting": "TM 86 cells; microarray", "value": -3.4, "unit": "fold"}, {"measurement": "CXADR FC (fold change)", "setting": "TM 86 cells; microarray", "value": -4.8, "unit": "fold"}, {"measurement": "ENST00000344214 FC (fold change)", "setting": "TM 86 cells; microarray", "value": -3.1, "unit": "fold"}, {"measurement": "FKBP5 FC (fold change)", "setting": "TM 86 cells; microarray", "value": 12.5, "unit": "fold"}, {"measurement": "GABRB1 FC (fold change)", "setting": "TM 86 cells; microarray", "value": -4.9, "unit": "fold"}, {"measurement": "ITGA10 FC (fold change)", "setting": "TM 86 cells; microarray", "value": 17.7, "unit": "fold"}, {"measurement": "KAL1 FC (fold change)", "setting": "TM 86 cells; microarray", "value": -6.7, "unit": "fold"}, {"measurement": "KCNB1 FC (fold change)", "setting": "TM 86 cells; microarray", "value": 19.9, "unit": "fold"}, {"measurement": "KIF4A FC (fold change)", "setting": "TM 86 cells; microarray", "value": -4.1, "unit": "fold"}, {"measurement": "KLF15 FC (fold change)", "setting": "TM 86 cells; microarray", "value": 11.1, "unit": "fold"}, {"measurement": "LSP1 FC (fold change)", "setting": "TM 86 cells; microarray", "value": 15.4, "unit": "fold"}, {"measurement": "MXRA5 FC (fold change)", "setting": "TM 86 cells; microarray", "value": -5.4, "unit": "fold"}, {"measurement": "MYOC FC (fold change)", "setting": "TM 86 cells; microarray", "value": 6.7, "unit": "fold"}, {"measurement": "PCDH19 FC (fold change)", "setting": "TM 86 cells; microarray", "value": -5.0, "unit": "fold"}, {"measurement": "PER3 FC (fold change)", "setting": "TM 86 cells; microarray", "value": -7.0, "unit": "fold"}, {"measurement": "RASL11B FC (fold change)", "setting": "TM 86 cells; microarray", "value": -4.0, "unit": "fold"}, {"measurement": "RGC32 FC (fold change)", "setting": "TM 86 cells; microarray", "value": ">100", "unit": "fold"}, {"measurement": "SAA1 FC (fold change)", "setting": "TM 86 cells; microarray", "value": 35.3, "unit": "fold"}, {"measurement": "ZBTB16 FC (fold change)", "setting": "TM 86 cells; microarray", "value": 8.1, "unit": "fold"}]}]}
